Tests used:
GHR [1] = target: T1, GHR (Homo sapiens, UniProt P10912); experiment: Endogenous GHR levels in IM-9 human B lymphoblasts (immunoprecipitation); type: cell-based; conditions: for levels of GHR: IM-9 lymphoblasts, in 4 h
T1 construct: endogenous in cells; host or cells: IM-9 human B lymphoblasts
T1 sequence (P10912 19-638): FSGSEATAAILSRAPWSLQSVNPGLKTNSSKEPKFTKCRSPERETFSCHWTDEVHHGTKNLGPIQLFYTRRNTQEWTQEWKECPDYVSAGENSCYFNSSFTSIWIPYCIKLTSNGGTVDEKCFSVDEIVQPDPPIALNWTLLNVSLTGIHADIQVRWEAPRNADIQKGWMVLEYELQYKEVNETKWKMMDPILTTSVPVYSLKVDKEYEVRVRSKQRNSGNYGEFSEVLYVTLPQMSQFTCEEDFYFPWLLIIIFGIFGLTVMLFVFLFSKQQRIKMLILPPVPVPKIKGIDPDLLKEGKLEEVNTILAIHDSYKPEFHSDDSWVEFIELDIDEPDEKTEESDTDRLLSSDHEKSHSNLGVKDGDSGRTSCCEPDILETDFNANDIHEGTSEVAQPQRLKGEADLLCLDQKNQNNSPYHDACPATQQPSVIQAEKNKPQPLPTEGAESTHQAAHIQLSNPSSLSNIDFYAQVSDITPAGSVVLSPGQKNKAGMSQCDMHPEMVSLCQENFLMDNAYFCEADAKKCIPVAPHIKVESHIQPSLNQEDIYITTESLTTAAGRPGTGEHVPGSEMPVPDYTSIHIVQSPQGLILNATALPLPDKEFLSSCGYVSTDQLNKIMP
Protocol: (§1) For GHR-Jak2 co-immunoprecipitations, the cells were lysed in 20 mM Tris pH 8.0, 150 mM NaCl, 0.5% NP40, 1 mM PMSF, […]. Cell lysates were centrifuged to pellet the nuclei and the supernatants were used for GHR isolation in 1% Triton X-100, 0.5% SDS,0.25% sodium deoxycholate, 0.5% BSA, and inhibitors via immune precipitation with anti-GHR and protein A beads. Immunoprecipitates were subjected to reducing SDS-PAGE and transferred to Immobilon-FL polyvinylidenedifluoride membrane (Millipore). Blots were immunostained with the indicated primary antibodies followed by Alexa Fluor 680, Alexa-800 IRDye conjugated anti-mouse or anti-rabbit antibodies. Detection was performed with an Odyssey system (LI-COR Biosciences).
In the primary screen we used soluble fos-zipped GHR cytosolic tails that act in signaling complexes if co-expressed with Jak2. Initially, 6 scenarios were anticipated that can lower these signals. In the discovery itinerary we used the flow cytometer assay twice to find drugs that act on the GH-induced Jak2/STAT5 pathway and not on the identical GM/CSF-driven pathway ( Figure 3 , Figure S8 ). As the GM/CSF-induced Jak2/STAT5 pathway was not affected by the 2 hit compounds (BM004 and BM012), that served as prototypes for the final analogue selection, we excluded the possibility that they act on the Jak2 signaling pathway directly (scenario 1). To test scenario 2 (inhibition of fos-GHRct expression), we treated GHR-expressing Hek293T cells with a selection of drugs from the cell proliferation studies and analyzed the GHR species. […] The ratio between the amounts of GHR in the ER and at the PM reflects a steady state of synthesis (ER) and transport to the PM followed by endocytosis and degradation in the lysosomes. […] Because both species diminished, the drugs either inhibit the synthesis of GHR molecules or induce rapid GHR degradation in the ER. To decide between these possibilities, we performed in vitro translation experiments. […]
Figure 7 Effect of drugs on protein synthesis. […] The blots were detected with anti-GHR(B). […]

GHR [2] = target: T2, GHR (Oryctolagus cuniculus, UniProt P19941); experiment: GHR and pY-GHR immunoblot in GHR-transfected Hek293 cells stimulated with GH; type: cell-based, rabbit; conditions: for GHR HEK cells (GHR at PM and in ER): 10 µM drugs overnight; for GHR pY HEK cells: GH 10-15 min before lysis, drugs overnight/20 h
T2 construct: expressed in transfected cells; host or cells: Hek293 / Hek293T cells
T2 sequence (P19941 19-638): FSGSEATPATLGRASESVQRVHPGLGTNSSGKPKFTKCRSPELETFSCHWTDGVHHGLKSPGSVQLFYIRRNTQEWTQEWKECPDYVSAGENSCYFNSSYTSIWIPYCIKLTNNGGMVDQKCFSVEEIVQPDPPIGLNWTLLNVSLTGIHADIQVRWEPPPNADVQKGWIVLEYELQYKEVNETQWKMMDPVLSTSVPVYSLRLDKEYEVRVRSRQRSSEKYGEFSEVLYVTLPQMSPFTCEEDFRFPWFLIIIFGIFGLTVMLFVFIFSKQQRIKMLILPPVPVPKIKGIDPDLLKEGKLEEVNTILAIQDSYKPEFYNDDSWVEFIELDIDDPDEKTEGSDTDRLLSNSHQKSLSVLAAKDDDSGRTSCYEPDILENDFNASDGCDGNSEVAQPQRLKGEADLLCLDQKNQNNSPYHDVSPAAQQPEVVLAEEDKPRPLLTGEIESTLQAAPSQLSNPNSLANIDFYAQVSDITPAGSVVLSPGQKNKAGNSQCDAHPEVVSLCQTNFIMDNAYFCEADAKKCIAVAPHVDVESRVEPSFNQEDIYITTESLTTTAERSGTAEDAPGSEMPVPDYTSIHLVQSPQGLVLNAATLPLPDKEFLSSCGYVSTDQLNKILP
Protocol: as §1
In the primary screen we used soluble fos-zipped GHR cytosolic tails that act in signaling complexes if co-expressed with Jak2. Initially, 6 scenarios were anticipated that can lower these signals. In the discovery itinerary we used the flow cytometer assay twice to find drugs that act on the GH-induced Jak2/STAT5 pathway and not on the identical GM/CSF-driven pathway ( Figure 3 , Figure S8 ). As the GM/CSF-induced Jak2/STAT5 pathway was not affected by the 2 hit compounds (BM004 and BM012), that served as prototypes for the final analogue selection, we excluded the possibility that they act on the Jak2 signaling pathway directly (scenario 1). To test scenario 2 (inhibition of fos-GHRct expression), we treated GHR-expressing Hek293T cells with a selection of drugs from the cell proliferation studies and analyzed the GHR species. […] The ratio between the amounts of GHR in the ER and at the PM reflects a steady state of synthesis (ER) and transport to the PM followed by endocytosis and degradation in the lysosomes. […] Because both species diminished, the drugs either inhibit the synthesis of GHR molecules or induce rapid GHR degradation in the ER. To decide between these possibilities, we performed in vitro translation experiments. […] To exclude scenario 3 (inhibition of the GHR : Jak2 interaction) we replaced the proline residues in box-1 (the binding site for Jak2) with alanine residues. […] These findings render scenarios 4-6 (increased degradation of fos-pGHRct, increased degradation of Jak2, and dephosphorylation of fos-pGHRct) unlikely.
Figure 7 Effect of drugs on protein synthesis. (A): Effect of compounds on GHR. […] The amounts of GHR both at the plasma membrane (PM) and in the ER (ER) were decreased in the drug-treated cells. […] The cells were treated for GH for 10 min before lysis to be able to monitor the pY signals, after GHR isolation by immunoprecipitation (middle panels). The effect of the drugs on the pY signals reflected those of the GHR levels (only PM species were visible). In the presence of Ruxolitinib, the protein levels were unchanged, while the pY label (middle panel) was absent. […] This experiment represents the results of 6 independent repeats. (B): BM001 concentration effects on the synthesis of fos-GHRct in a HeLa cell cell-free system. […] In the right panel the 4 proline residues in box-1 were replaced by alanine residues. Empty vector (pcDNA) was used as control. The blots were detected with anti-GHR(B). The in vitro translation was performed 5 times that all show a clear inhibitory effect of BM001 on the GHR signal. (C): Effect of selected drugs on GHR levels in human lymphoblasts. IM‐9 human B lymphoblasts express endogenous GHR. […]

SMILES | GHR HEK cells (GHR at PM and in ER) (GHR [2]) | levels of GHR (GHR [1]) | GHR pY HEK cells (GHR [2]) | other results
Cc1nc(N)nc(N)c1/C=C/C1(c2ccc(C(F)(F)F)cc2)CC1 [BM001] | strongest effect |  |  | GHR in IM-9 cells (GHR [1]; drugs 4 hrs): depleted
Cc1c(-c2cccc(C#N)c2)ccc2nc(N)nc(N)c12 [BM002] |  | ~ 60% |  | 
COc1cc(CN(C)c2ccc3nc(N)nc(N)c3c2)cc(OC)c1OC [BM003] |  | ~ 60% |  | 
Cc1nc(N)nc(N)c1C#CC1(c2ccc(Cl)cc2)CC1 [BM004] |  |  | reduced | 
CCOc1cccc2nc(N)nc(N)c12 [BM012] |  |  | reduced | 
N#CC[C@H](C1CCCC1)n1cc(-c2ncnc3[nH]ccc23)cn1 [Ruxolitinib, reference compound] | unchanged |  | absent | 

— article PMC9365994, “Small molecules to regulate the GH/IGF1 axis by inhibiting the growth hormone receptor synthesis” (Frontiers in Endocrinology, 2022)
